pKi: −log10 of the molar value. *1 amine or outer side, *2 acyl side, *3 side chain or, on linkers, in order; H or OH if unused. Where a SMILES comes first, the peptide text is derived from it. CO = O=C([*:1])[*:2]
What was measured:
Human tryptase = conditions: cited from earlier work
[1] = Isoelectric focussing (PhastSystem); type: physicochemical
Method: a) SDS-PAGE and isoelectric focussing (IEF) SDS-PAGEs of the proteins were performed with 15-25% polyacrylamide gels following the procedure of Laemmli [Laemmli, 1970]. The gels were either self-prepared and run in a conventional apparatus or in the PhastSystem (Pharmacia, Sollentuna, Sweden). Isoelectric focussing was also done with the PhastSystem using the isoelectric focussing calibration kit pH 3-10.

Tryptase (human) = assay: Inhibition of the amidolytic activity of tryptase / equilibrium dissociation constants (Ki); type: biochemical
Method: h) Inhibitory activity: During the purification procedure the inhibitor was followed by measurements of its effect on the amidolytic activity of tryptase. Therefore, samples were incubated with tryptase (0.59 nM) in 50 mM Tris/HCl (pH 7.6), 150 mM NaCl, 50 μg/ml bovine lung heparin, and 0.1% (w/v) bovine serum albumin for 25 min at 37° C. The assay was started by addition of the substrate tos-Gly-Pro-Arg-pNa at a final concentration of 0.1 mM. The released nitroaniline was monitored spectrometrically at 405 nm for 3.5 min using a UVIKON 930 photometer (Kontron; Eching, Germany).
k) Determination of equilibrium constants: To determine the specificity of the inhibitor, its effect on the amidolytic activity of various serine proteinases (see Tab. 5) was determined. […] The residual enzyme activity was measured after addition of a suitable substrate.
Equilibrium dissociation constants (Ki) for the complexes of the inhibitor with individual proteases were determined essentially as described by Bieth [Bieth, 1980]. Briefly, increasing concentrations of the inhibitor were incubated with a constant concentration of the enzyme; the time necessary to reach equilibration of the enzyme-inhibitor complex was determined for each protease in preliminary experiments. Substrate was then added, and the residual enzyme activity measured. […]

Molecule | inhibition of tryptase (literature) (Human tryptase) | further results
alpha1 -proteinase inhibitor: naturally occurring antiproteinase | not inhibited | –
rLDTI-C: recombinant form C inhibitor expressed in Saccharomyces cerevisiae with secretion vector pVT102U/alpha and strain S-78 (KKVCACPKILKPVCGSDGRTYANSCIARCNGVSIKSEGSCPTGILN) | – | isoelectric point [1]: > 10 pH; pKi (Tryptase (human); Ki for the inhibition of two of the four subunits of the tryptase-tetramer, substrate Tos-Gly-Pro-Arg-pNA, read-out: Ki (second Ki column)): 8.72; maximal inhibition of human tryptase (Tryptase (human); substrate tos-Gly-Pro-Arg-pNa): ~ 50%
CC(=O)N[C@@H](CC(C)C)C(=O)N[C@@H](CC(C)C)C(=O)N[C@H](C=O)CCCNC(=N)N [leupeptin] | – | Ki values for the complexes with tryptase (literature) (Human tryptase): micromolar range
alpha2 -macroglobulin: naturally occurring antiproteinase | not inhibited | –
O=S(=O)(F)Cc1ccccc1 [phenylmethylsulfonyl fluoride] | inhibited | –
ecotin: proteinase inhibitor | not affected | –
antithrombin III | not inhibited | –
C1 -esterase inhibitor: naturally occurring antiproteinase | not inhibited | –
CC(C)[C@H](NC(=O)[C@H](CCCNC(=N)N)NC(=O)N[C@@H](Cc1ccccc1)C(=O)O)C(=O)N[C@H](C=O)CCCNC(=N)N [antipain] ({Phe-CO}-Arg-Val-Arg-aldehyde) | – | Ki values for the complexes with tryptase (literature) (Human tryptase): micromolar range
aprotinin | not affected | –
hirudin | not affected | –
tosyl-L-lysine chloromethyl ketone | inhibited | –

From patent US5972698A, “Tryptase inhibitor” (Novartis Corporation, priority 1993, dated 1999)
